One series deals with human GLP1R (Homo sapiens, UniProt P43220). The series is described as follows: CRE-luc luciferase assay in GLP1R and CRE-luc cotransfected HEK293T cells. It is filed as cell-based.
Series [1] deals with DPP-IV activity of fetal bovine serum (Bos taurus, UniProt P81425). The series is described as follows: Stability in 100% FBS, residual activity by GLP1R/CRE-luc luciferase assay. The series is classed as in vitro ADME. Conditions: FBS incubation, 37℃.

No end group written: not given here.

Chain of human GLP1R (P43220 24-463): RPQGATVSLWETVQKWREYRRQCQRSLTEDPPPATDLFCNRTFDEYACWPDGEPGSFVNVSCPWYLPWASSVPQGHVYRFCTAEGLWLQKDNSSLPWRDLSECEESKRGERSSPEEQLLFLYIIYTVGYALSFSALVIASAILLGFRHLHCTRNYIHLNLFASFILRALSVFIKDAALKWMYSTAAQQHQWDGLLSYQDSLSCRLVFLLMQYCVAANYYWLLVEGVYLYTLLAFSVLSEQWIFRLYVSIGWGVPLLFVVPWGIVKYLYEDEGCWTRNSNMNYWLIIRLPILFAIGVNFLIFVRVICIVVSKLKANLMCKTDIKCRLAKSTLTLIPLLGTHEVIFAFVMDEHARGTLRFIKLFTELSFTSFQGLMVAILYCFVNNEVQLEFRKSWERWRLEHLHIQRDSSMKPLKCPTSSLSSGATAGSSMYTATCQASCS
Chain of DPP-IV activity of fetal bovine serum (P81425 38-765 limits assumed): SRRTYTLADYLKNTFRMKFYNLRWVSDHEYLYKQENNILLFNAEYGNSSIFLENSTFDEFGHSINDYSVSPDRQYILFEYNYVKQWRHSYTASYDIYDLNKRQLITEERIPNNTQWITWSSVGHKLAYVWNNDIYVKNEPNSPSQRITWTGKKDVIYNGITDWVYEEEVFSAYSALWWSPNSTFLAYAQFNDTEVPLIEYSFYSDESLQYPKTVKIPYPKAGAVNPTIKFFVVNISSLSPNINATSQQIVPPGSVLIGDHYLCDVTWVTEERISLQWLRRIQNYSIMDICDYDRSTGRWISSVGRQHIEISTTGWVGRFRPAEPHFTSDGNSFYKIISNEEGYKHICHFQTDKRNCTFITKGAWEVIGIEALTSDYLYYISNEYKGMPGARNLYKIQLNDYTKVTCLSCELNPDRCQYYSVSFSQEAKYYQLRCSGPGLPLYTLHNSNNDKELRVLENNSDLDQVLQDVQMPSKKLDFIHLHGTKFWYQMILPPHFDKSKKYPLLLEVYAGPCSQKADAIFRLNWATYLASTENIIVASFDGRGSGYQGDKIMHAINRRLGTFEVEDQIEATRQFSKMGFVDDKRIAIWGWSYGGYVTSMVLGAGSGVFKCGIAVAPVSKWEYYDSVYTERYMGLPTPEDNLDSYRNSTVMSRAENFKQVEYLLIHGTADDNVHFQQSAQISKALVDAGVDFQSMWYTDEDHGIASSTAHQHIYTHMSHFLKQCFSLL

Consider “HAEGTFTNDMTNYLEEKAAKEFVGWLIKGR-NH2 [xGLP, Xenopus GLP-1, reference compound]”, for which, at human GLP1R, a half-maximal response (EC50) required 0.832 nM.

Take “HSEGTFTNDMTNYLEEKAAKEFVGWLIKGGPSSGAPPPS [xGLP-E4]”: in series [1], the “stability in serum (overall comparison, words)” value is “more stable in serum than wild-type human and xGLP”. The response on human GLP1R was half-maximal at 0.155 nM (EC50).

(Values after PMC4192806 (Endocrinology and Metabolism, 2014).)
